The test system of the experiment is PDE4. Description: PDE4 Assay Procedure ([3H]-cAMP SPA). The format is biochemical. The note with it: 15 nM [3H]-cAMP, 1 hour at room temperature, SPA beads.

SMILES strings stand for the structures. pIC50: −log10 of the molar value.

Protocol: Compounds to be tested were resuspended in DMSO at a stock concentration of 1 mM. […] These dilutions were done in 96-well plates. In some cases, plates containing diluted compounds were frozen before being assayed. In these cases, the plates were thawed at room temperature and stirred for 15 minutes.
Ten microliters of the diluted compounds were poured into a “low binding” assay plate. […] The reaction was initiated by adding ten microliters of a solution containing PDE4. The plate was then incubated under stirring for 1 hour at room temperature. After incubation the reaction was stopped with 50 microlitres of SPA beads, and the reaction was allowed to incubate for another 20 minutes at room temperature before measuring radioactivity using standard instrumentation.
The reaction mixture was prepared by adding 90 ml of H2O to 10 ml of 10× assay buffer (500 mM Tris pH 7.5, 83 mM MgCl2, 17 mM EGTA), and 40 microlitres 1 μCi/μL [3H]-cAMP. SPA beads solution was prepared by adding 500 mg to 28 ml H2O for a final concentration of 20 mg/ml beads and 18 mM zinc sulphate.

As usually defined, the pIC50 is −log10 of the IC50, conventionally taken in molar units. A lower pIC50 goes with a high IC50. The compound `CC1(C)Cc2c(c(N3CCOCC3)nc3oc4c(N(CCN5CCOCC5)Cc5cccnc5)ncnc4c23)CO1` [Example 14, 2,2-Dimethyl-5-morpholin-4-yl-N-(2-morpholin-4-ylethyl)-N-(pyridin-3-ylmethyl)-1,4-dihydro-2H-pyrano[4″,3″:4′,5′]pyrido[3′,2′:4,5]furo[3,2-d]pyrimidin-8-amine] gave a negative logarithm of the IC50 (pIC50) of 8.00.

The compound `CC1(C)CCc2c(N3CCOCC3)nc3oc4c(N(CCO)CCN5CCOCC5)ncnc4c3c2C1` [Example 20, 2-[(2,2-Dimethyl-5-morpholin-4-yl-1,2,3,4-tetrahydropyrimido[4′,5′:4,5]furo[2,3-c]isoquinolin-8-yl)(2-morpholin-4-ylethyl)amino]ethanol] gave a pIC50 of 9.10.

Consider `CC1(C)CCc2c(N3CCOCC3)nc3oc4c(NCCN5CCOCC5)ncnc4c3c2C1` [Example 23, 2,2-Dimethyl-5-morpholin-4-yl-N-(2-morpholin-4-ylethyl)-1,2,3,4-tetrahydropyrimido[4′,5′:4,5]furo[2,3-c]isoquinolin-8-amine], for which the pIC50 is 8.05.

Consider `CCNc1nc2oc3c(NCCN4CCOCC4)ncnc3c2c2c1CCC(C)(C)C2` [Example 31, N^5-Ethyl-2,2-dimethyl-N^8-(2-morpholin-4-ylethyl)-1,2,3,4-tetrahydropyrimido[4′,5′:4,5]furo[2,3-c]isoquinoline-5,8-diamine], for which the pIC50 is 8.70. This pIC50 is 0.65 log units higher than that of the compound before.

`CCNc1nc2oc3c(NCCCN4CCCC4=O)ncnc3c2c2c1CCC(C)(C)C2` [Example 35, 1-(3-{[5-(Ethylamino)-2,2-dimethyl-1,2,3,4-tetrahydropyrimido[4′,5′:4,5]furo[2,3-c]isoquinolin-8-yl]amino}propyl)pyrrolidin-2-one] had a pIC50 of 8.80. The pIC50 values of the last two compounds are within 0.2 log units of each other.

`CC1(C)CCc2c(NC3CCC3)nc3oc4c(NCCN5CCOCC5)ncnc4c3c2C1` [Example 46, N^5-Cyclobutyl-2,2-dimethyl-N^8-(2-morpholin-4-ylethyl)-1,2,3,4-tetrahydropyrimido [4′,5′:4,5]furo[2,3-c]isoquinoline-5,8-diamine] gave a pIC50 of 9.15.

The values above are taken from US20080221096A1, “Pyrido[3' ,2':4,5]Furo[3,2-d]Pyrimidine Derivatives” (priority 2005, published 2008).
